From patent publication US11208412B2 (DAEGU-GYEONGBUK MEDICAL INNOVATION FOUNDATION, priority 2017, dated 2021)

Biological target: T1, recombinant LRRK2 kinase (Homo sapiens, UniProt Q5S007)
T1 construct: purchased Signal Chem, Richmond, BC, Canada
Experiment: LRRK2 kinase inhibition (Kinase-Glo luminescence)
Format: biochemical
Conditions: IC50 grade; 25 μmol/L ATP, LRRKtide, 30° C. 2 hours; read-out: Enzyme activity LRRK2
Procedure: Upon completion of the reaction, an equal amount of Kinase-Glo (Promega, Madison, Wis.) solution was added thereto, followed by reaction for 40 minutes. A detection solution was added thereto, followed by further reaction at room temperature for 30 minutes. Then, IC50 of kinase was calculated by measuring the amount of luciferase using a microplate ELISA reader (Bio-Tek).

T1 sequence (Q5S007 whole entry): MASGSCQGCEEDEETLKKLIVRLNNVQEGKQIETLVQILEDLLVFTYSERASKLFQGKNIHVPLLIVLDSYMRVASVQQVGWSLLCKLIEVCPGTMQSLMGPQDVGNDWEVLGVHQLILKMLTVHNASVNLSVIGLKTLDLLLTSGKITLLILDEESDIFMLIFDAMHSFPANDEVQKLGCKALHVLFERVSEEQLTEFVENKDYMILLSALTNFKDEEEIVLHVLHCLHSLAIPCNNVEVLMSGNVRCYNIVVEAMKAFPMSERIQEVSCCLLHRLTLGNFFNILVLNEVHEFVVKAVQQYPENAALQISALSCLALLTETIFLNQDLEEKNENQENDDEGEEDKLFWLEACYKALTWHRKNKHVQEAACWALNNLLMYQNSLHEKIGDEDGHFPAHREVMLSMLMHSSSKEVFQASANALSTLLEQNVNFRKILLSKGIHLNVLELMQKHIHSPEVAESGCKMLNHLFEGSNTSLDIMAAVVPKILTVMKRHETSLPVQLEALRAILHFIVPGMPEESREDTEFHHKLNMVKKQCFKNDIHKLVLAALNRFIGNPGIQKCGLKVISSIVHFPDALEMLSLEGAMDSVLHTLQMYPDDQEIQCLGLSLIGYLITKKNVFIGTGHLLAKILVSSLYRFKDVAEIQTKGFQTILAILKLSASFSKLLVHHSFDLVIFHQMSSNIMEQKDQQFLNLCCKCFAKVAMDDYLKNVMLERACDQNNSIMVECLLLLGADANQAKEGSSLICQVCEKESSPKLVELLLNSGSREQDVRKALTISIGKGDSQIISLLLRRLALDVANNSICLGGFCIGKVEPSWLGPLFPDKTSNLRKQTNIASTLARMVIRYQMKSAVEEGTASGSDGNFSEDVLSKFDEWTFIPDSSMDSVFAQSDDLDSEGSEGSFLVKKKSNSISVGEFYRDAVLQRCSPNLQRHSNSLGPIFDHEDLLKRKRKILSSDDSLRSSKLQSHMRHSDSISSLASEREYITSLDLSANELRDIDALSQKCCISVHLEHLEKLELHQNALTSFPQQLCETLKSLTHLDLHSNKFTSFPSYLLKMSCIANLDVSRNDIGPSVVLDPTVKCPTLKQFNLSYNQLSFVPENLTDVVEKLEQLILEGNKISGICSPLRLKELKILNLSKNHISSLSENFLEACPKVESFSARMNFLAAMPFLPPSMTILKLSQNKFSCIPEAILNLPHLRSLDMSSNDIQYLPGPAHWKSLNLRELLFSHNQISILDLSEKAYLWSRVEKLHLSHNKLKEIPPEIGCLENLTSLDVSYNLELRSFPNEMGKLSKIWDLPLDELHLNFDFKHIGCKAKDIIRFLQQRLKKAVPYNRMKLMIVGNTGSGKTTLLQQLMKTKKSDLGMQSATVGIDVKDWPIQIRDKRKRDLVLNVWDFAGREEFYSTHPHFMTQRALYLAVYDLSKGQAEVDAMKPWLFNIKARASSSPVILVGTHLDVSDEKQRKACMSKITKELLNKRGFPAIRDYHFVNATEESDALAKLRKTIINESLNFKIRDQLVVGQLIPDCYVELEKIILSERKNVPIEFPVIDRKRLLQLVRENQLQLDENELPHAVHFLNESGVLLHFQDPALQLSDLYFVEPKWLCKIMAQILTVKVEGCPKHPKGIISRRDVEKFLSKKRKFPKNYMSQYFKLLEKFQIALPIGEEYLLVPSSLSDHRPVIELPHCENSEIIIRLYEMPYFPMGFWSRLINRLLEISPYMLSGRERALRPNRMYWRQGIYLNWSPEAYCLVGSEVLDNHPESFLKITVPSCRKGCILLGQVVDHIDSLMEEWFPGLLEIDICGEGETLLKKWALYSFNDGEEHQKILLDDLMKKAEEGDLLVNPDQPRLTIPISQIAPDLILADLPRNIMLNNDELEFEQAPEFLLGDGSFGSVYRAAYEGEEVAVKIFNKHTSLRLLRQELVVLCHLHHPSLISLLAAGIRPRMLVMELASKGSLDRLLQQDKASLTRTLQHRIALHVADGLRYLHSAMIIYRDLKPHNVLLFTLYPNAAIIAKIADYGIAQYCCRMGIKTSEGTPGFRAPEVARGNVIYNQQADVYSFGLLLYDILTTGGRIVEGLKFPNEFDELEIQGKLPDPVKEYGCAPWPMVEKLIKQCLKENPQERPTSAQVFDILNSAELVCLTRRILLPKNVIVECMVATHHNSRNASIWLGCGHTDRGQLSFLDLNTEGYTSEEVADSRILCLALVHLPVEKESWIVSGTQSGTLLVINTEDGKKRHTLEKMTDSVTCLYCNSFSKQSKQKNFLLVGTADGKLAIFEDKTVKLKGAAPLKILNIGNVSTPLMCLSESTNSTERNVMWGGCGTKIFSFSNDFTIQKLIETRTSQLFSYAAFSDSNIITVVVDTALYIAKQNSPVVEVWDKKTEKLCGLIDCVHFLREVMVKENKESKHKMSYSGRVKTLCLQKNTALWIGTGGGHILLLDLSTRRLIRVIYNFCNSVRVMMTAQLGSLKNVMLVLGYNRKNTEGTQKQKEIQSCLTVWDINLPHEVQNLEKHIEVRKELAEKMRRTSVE

| SMILES | IC50 |
| --- | --- |
| COc1cc(C(=O)N2CCOCC2)ccc1Nc1nc(OC(C)C)c2c(C#N)c[nH]c2n1 [Example 90, 4-isoprofoxy-2-((2-methoxy-4-(morpholine-4-carbonyl)phenyl)amino)-7H-pyrrolo[2,3-d]pyrimidine-5-carbonitrile] | < 0.01 µM |
| CNc1nc(Nc2cnn([C@H]3CCN(C4COC4)C[C@@H]3F)c2Cl)nc2[nH]cc(C#N)c12 [Example 50, 2-((5-chloro-1-((3S,4S)-3-fluoro-1-(oxetane-3-yl)piperidine-4-yl)-1H-pyrazole-4-yl)amino)-4-(methylamino)-7H-pyrrolo[2,3-d]pyrimidine-5-carbonitrile] | < 0.01 µM |
| CNc1nc(Nc2cnn(CCO)c2)nc2[nH]cc(C#N)c12 [Example 69, 2-((1-(2-hydroxyethyl)-1H-pyrazole-4-yl)amino)-4-(methylamino)-7H-pyrrolo[2,3-d]pyrimidine-5-carbonitrile] | < 0.01 µM |
| CNc1nc(Nc2cc(F)c(C(=O)N3CCOCC3)cc2OC)nc2[nH]cc(C#N)c12 [Example 10, 2-((5-fluoro-2-methoxy-4-(morpholine-4-carbonyl)phenyl)amino)-4-(methylamino)-7H-pyrrolo[2,3-d]pyrimidine-5-carbonitrile] | < 0.01 µM |
| CCNc1nc(Nc2ccc(C(=O)N3C[C@@H](C)O[C@@H](C)C3)cc2OC)nc2[nH]cc(C(F)(F)F)c12 [Example 109] | > 0.1 µM |
| CNc1nc(Nc2cc(F)c(C(=O)N3CCC(N4CCOCC4)CC3)cc2OC)nc2[nH]cc(C#N)c12 [Example 11, 2-((5-fluoro-2-methoxy-4-(4-morpholinopiperidine-1-carbonyl)phenyl)amino)-4-(methylamino)-7H-pyrrolo[2,3-d]pyrimidine-5-carbonitrile] | < 0.01 µM |
| COc1cc(C(=O)N2CCOCC2)ccc1Nc1nc(OC2CCOC2)c2c(C#N)c[nH]c2n1 (stereo not drawn) [Example 86, 2-((2-methoxy-4-(morpholine-4-carbonyl)phenyl)amino)-4-((tetrahydrofuran-3-yl)oxy)-7H-pyrrolo[2,3-d]pyrimidine-5-carbonitrile] | < 0.01 µM |
| CCNc1nc(Nc2ncc(C(=O)N3CCOCC3)cc2OC)nc2[nH]cc(C#N)c12 [Example 48, 4-(ethylamino)-2-((3-methoxy-5-(morpholine-4-carbonyl)pyridine-2-yl)amino)-7H-pyrrolo[2,3-d]pyrimidine-5-carbonitrile] | > 0.1 µM |
| CCNc1nc(Nc2ccc3c(c2)CN(C)C3=O)nc2[nH]cc(C(F)(F)F)c12 [Example 136, 5-((4-(ethylamino)-5-(trifluoromethyl)-7H-pyrrolo[2,3-d]pyrimidine-2-yl)amino)-2-methylisoindolin-1-one] | 0.01 to 0.1 µM |
| CCCNc1nc(Nc2ccc(C(=O)N3CCC(N4CCOCC4)CC3)cc2OC)nc2[nH]cc(C#N)c12 [Example 13, 2-((2-methoxy-4-(4-morpholinopiperidine-1-carbonyl)phenyl)amino)-4-(propylamino)-7H-pyrrolo[2,3-d]pyrimidine-5-carbonitrile] | < 0.01 µM |
| CNc1nc(Nc2cnn(C(C)(C)C#N)c2Cl)nc2[nH]cc(C#N)c12 [Example 73, 2-((5-chloro-1-(2-cyanopropane-2-yl)-1H-pyrazole-4-yl)amino)-4-(methylamino)-7H-pyrrolo[2,3-d]pyrimidine-5-carbonitrile] | < 0.01 µM |
| CNc1nc(Nc2ccc(C(=O)N3CCC(F)(F)CC3)cc2OC)nc2[nH]cc(C#N)c12 [Example 23] | < 0.01 µM |
| CNc1nc(Nc2cn(C(C)(C)C#N)nc2Cl)nc2[nH]cc(C#N)c12 [Example 71, 2-((3-chloro-1-(2-cyanopropane-2-yl)-1H-pyrazole-4-yl)amino)-4-(methylamino)-7H-pyrrolo[2,3-d]pyrimidine-5-carbonitrile] | < 0.01 µM |
| CNc1nc(Nc2cn(C(C)(C)C(N)=O)nc2C)nc2[nH]cc(C#N)c12 [Example 46, 2-(4-((5-cyano-4-(methylamino)-7H-pyrrolo[2,3-d]pyrimidine-2-yl)amino)-3-methyl-1H-pyrazole-1-yl)-2-methylpropaneamide] | < 0.01 µM |
| CNc1nc(Nc2ccc(C(=O)NC3CCN(C)CC3)cc2OC)nc2[nH]cc(C#N)c12 [Example 55, 4-((5-cyano-4-(methylamino)-7H-pyrrolo[2,3-d]pyrimidine-2-yl)amino)-3-methoxy-N-(1-methylpiperidine-4-yl)benzamide] | < 0.01 µM |
| CNc1nc(Nc2ccc(C(=O)N3CCO[C@H](C)C3)cc2OC)nc2[nH]cc(C#N)c12 [Example 20, (R)-2-((2-methoxy-4-(2-methylmorpholine-4-carbonyl)phenyl)amino)-4-(methylamino)-7H-pyrrolo[2,3-d]pyrimidine-5-carbonitrile] | < 0.01 µM |
| CCNc1nc(Nc2cc3c(cc2OC)N(C)C(=O)C(C)(C)O3)nc2[nH]cc(C#N)c12 [Example 131, 4-(ethylamino)-2-((6-methoxy-2,2,4-trimethyl-3-oxo-3,4-dihydro-2H-benzo[b][1,4]oxazine-7-yl)amino)-7H-pyrrolo[2,3-d]pyrimidine-5-carbonitrile] | 0.01 to 0.1 µM |
| CCNc1nc(Nc2cc(OC)c(OC)c(OC)c2)nc2[nH]cc(C#N)c12 [Example 3, 4-(ethylamino)-2-((3,4,5-trimethoxyphenyl)amino)-7H-pyrrolo[2,3-d]pyrimidine-5-carbonitrile] | < 0.01 µM |
| COc1cc(C(=O)N2CCOCC2)ccc1Nc1nc(O[C@@H]2CCOC2)c2c(C#N)c[nH]c2n1 [Example 89, (R)-2-((2-methoxy-4-(morpholine-4-carbonyl)phenyl)amino)-4-((tetrahydrofuran-3-yl)oxy)-7H-pyrrolo[2,3-d]pyrimidine-5-carbonitrile] | < 0.01 µM |
| CCNc1nc(Nc2ccc(C(=O)NC3CCN(C4COC4)CC3)cc2OC)nc2[nH]cc(C#N)c12 [Example 60, 4-((5-cyano-4-(ethylamino)-7H-pyrrolo[2,3-d]pyrimidine-2-yl)amino)-3-methoxy-N-(1-(oxetane-3-yl)piperidine-4-yl)benzylamide] | 0.01 to 0.1 µM |
| CCNc1nc(Nc2sc(C(C)(C)C#N)nc2C)nc2[nH]cc(C#N)c12 [Example 132, 2-((2-(2-cyanopropane-2-yl)-4-methylthiazole-5-yl)amino)-4-(ethylamino)-7H-pyrrolo[2,3-d]pyrimidine-5-carbonitrile] | 0.01 to 0.1 µM |
| CCNc1nc(Nc2cnn(CCO)c2)nc2[nH]cc(C#N)c12 [Example 70, 4-(ethylamino)-2-((1-(2-hydroxyethyl)-1H-pyrazole-4-yl)amino)-7H-pyrrolo[2,3-d]pyrimidine-5-carbonitrile] | < 0.01 µM |
| CCNc1nc(Nc2cnn(C(C)(C)C#N)c2Cl)nc2[nH]cc(C#N)c12 [Example 74, 2-((5-chloro-1-(2-cyanopropane-2-yl)-1H-pyrazole-4-yl)amino)-4-(ethylamino)-7H-pyrrolo[2,3-d]pyrimidine-5-carbonitrile] | < 0.01 µM |
| COc1cc(C(=O)N2C[C@@H](C)O[C@@H](C)C2)ccc1Nc1nc(NC2(C)CC2)c2c(C#N)c[nH]c2n1 [Example 44, 2-((4-((2R,6S)-2,6-dimethylmorpholine-4-carbonyl)-2-methoxyphenyl)amino)-4-((1-methylcyclopropyl)amino)-7H-pyrrolo[2,3-d]pyrimidine-5-carbonitrile] | 0.01 to 0.1 µM |
